Data: PubChem BioAssay AID330 (DTP/NCI, 2004)
Values joined by “and” are separate entries in the source; they are usually repeats but may differ in a detail not shown here. Equal entries are not always repeated. Inconclusive results and toxic doses are left out. The calls were made as follows: active = survival T/C of 150% or more; inactive = T/C below 125% in these data.

Test system: P388 leukemia ip, CD2F1 mice, survival T/C
Test: NCI In Vivo Anticancer Drug Screen. Data for tumor model P388 Leukemia (intraperitoneal) in CD2F1 (CDF1) mice
Details: endpoint: median survival time, higher = longer survival
How it was run: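 Mice carrying the transplanted tumor received test compound or vehicle. Survival was recorded in each group, and the value is the treated-group measurement divided by that of the vehicle-treated control group.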

[1] = dose: 60.0 mg/kg/injection, schedule: Q01DX005 (ip), vehicle: saline with Tween-80
[2] = dose: 120.0 mg/kg/injection, schedule: Q01DX005 (ip), vehicle: saline with Tween-80
[3] = dose: 240.0 mg/kg/injection, schedule: Q01DX005 (ip), vehicle: saline with Tween-80
[4] = dose: 6.25 mg/kg/injection, schedule: Q01DX005 (ip), vehicle: Klucel (hydroxypropylcellulose) (HPC)
[5] = dose: 12.5 mg/kg/injection, schedule: Q01DX005 (ip), vehicle: Klucel (hydroxypropylcellulose) (HPC)
[6] = dose: 25.0 mg/kg/injection, schedule: Q01DX005 (ip), vehicle: Klucel (hydroxypropylcellulose) (HPC)
[7] = dose: 50.0 mg/kg/injection, schedule: Q01DX005 (ip), vehicle: Klucel (hydroxypropylcellulose) (HPC)
[8] = dose: 100.0 mg/kg/injection, schedule: Q01DX005 (ip), vehicle: Klucel (hydroxypropylcellulose) (HPC)
[9] = dose: 200.0 mg/kg/injection, schedule: Q01DX009 (ip), vehicle: saline with Tween-80
[10] = dose: 60.0 mg/kg/injection, schedule: Q01DX005 (ip), vehicle: Klucel (hydroxypropylcellulose) (HPC)
[11] = dose: 50.0 mg/kg/injection, schedule: Q01DX009 (ip), vehicle: saline with Tween-80
[12] = dose: 100.0 mg/kg/injection, schedule: Q01DX009 (ip), vehicle: saline with Tween-80
[13] = dose: 50.0 mg/kg/injection, schedule: Q01DX009 (ip), vehicle: Klucel (hydroxypropylcellulose) (HPC)
[14] = dose: 100.0 mg/kg/injection, schedule: Q01DX009 (ip), vehicle: Klucel (hydroxypropylcellulose) (HPC)

Measured: T/C

Cc1cc(=O)c2c(=O)n(-c3ccccc3)[nH]c2[nH]1
inactive: [1] 111 % of control | [2] 109 % of control | [3] 100 % of control

Nc1ccc(S(=O)(=O)c2ccc(N)cc2)cc1
inactive: [4] 106 % of control | [5] 98 % of control | [6] 104 % of control | [7] 105 % of control | [8] 109 % of control | dose: 150.0 mg/kg/injection, schedule: Q01DX009 (ip), vehicle: saline with Tween-80 109 % of control and 93 % of control | [9] 98 % of control and 105 % of control

COc1cc(C)c2c(c1OC)C(=O)OC2
inactive: dose: 100.0 mg/kg/injection, schedule: Q04DX003 (ip), vehicle: Klucel (hydroxypropylcellulose) (HPC) 98 % of control | dose: 200.0 mg/kg/injection, schedule: Q04DX003 (ip), vehicle: Klucel (hydroxypropylcellulose) (HPC) 97 % of control | dose: 400.0 mg/kg/injection, schedule: Q04DX003 (ip), vehicle: Klucel (hydroxypropylcellulose) (HPC) 98 % of control

CCN(CC)CCOc1ccc(C2c3cc(OC)ccc3CC2Cc2cccc(Cl)c2)cc1 (stereo not given)
inactive: [4] 98 % of control | [5] 95 % of control | [6] 96 % of control | [7] 93 % of control

COC(=O)c1[nH]cc2ccccc12
inactive: dose: 100.0 mg/kg/injection, schedule: Q04DX003 (ip), vehicle: saline with Tween-80 98 % of control | dose: 200.0 mg/kg/injection, schedule: Q04DX003 (ip), vehicle: saline with Tween-80 104 % of control | dose: 400.0 mg/kg/injection, schedule: Q04DX003 (ip), vehicle: saline with Tween-80 102 % of control

O=C(O)CSCC(=O)Nc1ccccc1Cl
inactive: [1] 95 % of control | [2] 91 % of control | [3] 100 % of control

CCc1c(O)c2c(n(C)c1=O)CC(C)(C)NC2=S
inactive: [10] 100 % of control | dose: 120.0 mg/kg/injection, schedule: Q01DX005 (ip), vehicle: Klucel (hydroxypropylcellulose) (HPC) 100 % of control

O=[N+]([O-])c1c(Cl)nc(-c2ccccc2)nc1Cl
inactive: [4] 101 % of control | [5] 93 % of control | [6] 100 % of control

C=CC[S+]1CCSC1C(=O)OCC (stereo not given)
inactive: dose: 100.0 mg/kg/injection, schedule: Q01DX001 (ip), vehicle: saline 95 % of control | dose: 200.0 mg/kg/injection, schedule: Q01DX001 (ip), vehicle: saline 112 % of control | dose: 400.0 mg/kg/injection, schedule: Q01DX001 (ip), vehicle: saline 91 % of control

COC(=O)[C@@]12OC[C@]34[C@H]([C@@H](O)[C@@H]1O)[C@@]1(C)CC(=O)C(O)=C(C)[C@@H]1C[C@H]3OC(=O)[C@H](OC(=O)C(N)Cc1ccccc1)[C@@H]24 (stereo not given in full)
inactive: dose: 0.5 mg/kg/injection, schedule: Q01DX005 (ip), vehicle: Klucel (hydroxypropylcellulose) (HPC) 107 % of control | dose: 1.0 mg/kg/injection, schedule: Q01DX005 (ip), vehicle: Klucel (hydroxypropylcellulose) (HPC) 103 % of control and 107 % of control | dose: 2.0 mg/kg/injection, schedule: Q01DX005 (ip), vehicle: Klucel (hydroxypropylcellulose) (HPC) 108 % of control and 119 % of control | dose: 4.0 mg/kg/injection, schedule: Q01DX005 (ip), vehicle: Klucel (hydroxypropylcellulose) (HPC) 112 % of control | dose: 8.0 mg/kg/injection, schedule: Q01DX005 (ip), vehicle: Klucel (hydroxypropylcellulose) (HPC) 110 % of control | dose: 125.0 micrograms/kg/injection, schedule: Q01DX005 (ip), vehicle: Klucel (hydroxypropylcellulose) (HPC) 96 % of control | dose: 250.0 micrograms/kg/injection, schedule: Q01DX005 (ip), vehicle: Klucel (hydroxypropylcellulose) (HPC) 107 % of control | dose: 500.0 micrograms/kg/injection, schedule: Q01DX005 (ip), vehicle: Klucel (hydroxypropylcellulose) (HPC) 98 % of control | dose: 1000.0 micrograms/kg/injection, schedule: Q01DX005 (ip), vehicle: Klucel (hydroxypropylcellulose) (HPC) 107 % of control

Cc1c(N=Nc2cccc(Cl)c2Cl)c(-c2ccccc2)nn1C(N)=S
inactive: [6] 94 % of control | [7] 99 % of control | [8] 96 % of control

Cc1ccc(S(=O)(=O)CN(CN2C(=O)CCC2=O)c2ccc(Cl)cc2)cc1
inactive: dose: 15.0 mg/kg/injection, schedule: Q01DX005 (ip), vehicle: Klucel (hydroxypropylcellulose) (HPC) 101 % of control | dose: 30.0 mg/kg/injection, schedule: Q01DX005 (ip), vehicle: Klucel (hydroxypropylcellulose) (HPC) 95 % of control | [10] 91 % of control and 93 % of control | dose: 240.0 mg/kg/injection, schedule: Q01DX005 (ip), vehicle: Klucel (hydroxypropylcellulose) (HPC) 90 % of control

CC(=O)Nc1ccc(OCCOCCOc2ccc(NC(C)=O)cc2)cc1
inactive: [11] 92 % of control | [12] 94 % of control | [9] 91 % of control

c1cc(-c2nnc3ccccn23)c2c(-c3nnc4ccccn34)cccc2c1
inactive: [11] 100 % of control | [12] 97 % of control | [9] 97 % of control

O=[N+]([O-])c1ccc2c(c1)SC1=NN3C(O)COC(OCc4ccccc4)C3N12 (stereo not given)
inactive: dose: 100.0 mg/kg/injection, schedule: Q04DX002 (ip), vehicle: saline 97 % of control | dose: 200.0 mg/kg/injection, schedule: Q04DX002 (ip), vehicle: saline 100 % of control | dose: 400.0 mg/kg/injection, schedule: Q04DX002 (ip), vehicle: saline 93 % of control

COc1ccc(C(=O)CSC(=S)N2CCCCC2)cc1
inactive: [13] 86 % of control | [14] 86 % of control

CCC(c1ccc(OC)cc1)C(NCC(=O)N/N=C/c1ccc(O)c(OC)c1)c1ccc(OC)cc1 (stereo not given)
inactive: dose: 100.0 mg/kg/injection, schedule: Q01DX001 (ip), vehicle: saline with Tween-80 107 % of control | dose: 200.0 mg/kg/injection, schedule: Q01DX001 (ip), vehicle: saline with Tween-80 107 % of control | dose: 400.0 mg/kg/injection, schedule: Q01DX001 (ip), vehicle: saline with Tween-80 101 % of control

COc1cc2c(cc1OC)C13CCN4CC5=CCOC6CC(=O)N2C1C6C5CC43 (stereo not given)
inactive: dose: 7.5 mg/kg/injection, schedule: Q01DX005 (ip), vehicle: saline with Tween-80 102 % of control | dose: 12.5 mg/kg/injection, schedule: Q01DX009 (ip), vehicle: saline with Tween-80 100 % of control | dose: 15.0 mg/kg/injection, schedule: Q01DX005 (ip), vehicle: saline with Tween-80 97 % of control | dose: 25.0 mg/kg/injection, schedule: Q01DX009 (ip), vehicle: saline with Tween-80 100 % of control | dose: 25.0 mg/kg/injection, schedule: Q04DX003 (ip), vehicle: saline sonified 100 % of control | dose: 30.0 mg/kg/injection, schedule: Q01DX005 (ip), vehicle: saline with Tween-80 100 % of control | [11] 100 % of control | dose: 50.0 mg/kg/injection, schedule: Q04DX003 (ip), vehicle: saline sonified 95 % of control | [1] 93 % of control

CC(=O)NCCSc1nc(-c2ccccc2)c(-c2ccccc2)o1
inactive: [13] 95 % of control | [14] 104 % of control | dose: 200.0 mg/kg/injection, schedule: Q01DX009 (ip), vehicle: Klucel (hydroxypropylcellulose) (HPC) 101 % of control

O=C(c1ccc(-c2ccccc2)cc1)C1(Br)CCCCC1
inactive: [12] 100 % of control | [9] 100 % of control | dose: 400.0 mg/kg/injection, schedule: Q01DX009 (ip), vehicle: saline with Tween-80 100 % of control

O=C1C(Sc2ccccc2)C(c2ccccc2)C1Sc1ccccc1 (stereo not given)
inactive: dose: 50.0 mg/kg/injection, schedule: Q01DX005 (ip), vehicle: saline with Tween-80 96 % of control | dose: 100.0 mg/kg/injection, schedule: Q01DX005 (ip), vehicle: saline with Tween-80 105 % of control | dose: 200.0 mg/kg/injection, schedule: Q01DX005 (ip), vehicle: saline with Tween-80 99 % of control

O=CNc1c(Nc2ccccc2)nc(-c2ccccc2)[nH]c1=O
inactive: dose: 15.0 mg/kg/injection, schedule: Q01DX009 (ip), vehicle: saline with Tween-80 105 % of control | dose: 30.0 mg/kg/injection, schedule: Q01DX009 (ip), vehicle: saline with Tween-80 91 % of control | dose: 60.0 mg/kg/injection, schedule: Q01DX009 (ip), vehicle: saline with Tween-80 91 % of control

CCCCOP(O)(=S)OCCCC.[Er]
inactive: dose: 100.0 mg/kg/injection, schedule: Q04DX002 (ip), vehicle: saline with Tween-80 96 % of control | dose: 200.0 mg/kg/injection, schedule: Q04DX002 (ip), vehicle: saline with Tween-80 101 % of control | dose: 400.0 mg/kg/injection, schedule: Q04DX002 (ip), vehicle: saline with Tween-80 95 % of control
